Series [1] addresses T1, AMP-activated protein kinase, AMPK (Homo sapiens) (UniProt P54646+O43741+P54619+Q9UGJ0+Q9Y478+Q13131+Q9UGI9). Description: Induction of AMPK phosphorylation in human HepG2 cells at 10 uM by Western blot analysis in presence of 33 mM glucose. The class given is cell-based. On the technique in general: Immunoblotting shows a protein as a band on a membrane.
Series [2] is described as follows: Cytotoxicity against human HepG2 cells assessed as cell survival at 100 uM after 24 hrs by MTT assay. The class given is cell-based. Conditions: read-out: Survival. (In general: Formazan colour is commonly taken as a measure of viable cells.)
Series [3] is described as follows: Cytotoxicity against human HepG2 cells assessed as cell survival at 5 uM after 24 hrs by MTT assay. The class given is cell-based. The settings on record: read-out: Survival.
Series [4] can be described thus: Cytotoxicity against human HepG2 cells assessed as cell survival at 10 uM after 24 hrs by MTT assay. The class given is cell-based. The settings on record: read-out: Survival.
For series [5], the system named is HepG2. Description: Increase in glycogen synthesis in human HepG2 cells assessed as incorporation of [14C]glucose in to cellular glycogen pools at 10 uM after 60 mins in presence of 33 mM glucose. The class given is functional, cell-based.
The nature of series [6]: Cytotoxicity against human HepG2 cells assessed as cell survival at 20 uM after 24 hrs by MTT assay. The class given is cell-based. The settings on record: read-out: Survival.
Series [7] concerns HepG2. Description: Induction of glucose uptake in human HepG2 cells at 10 uM in presence of 33 mM […] by scintillation counting. The class given is functional, cell-based.
Series [8] has as its target Glycogen synthase kinase-3 beta (Homo sapiens) (UniProt P49841). The experiment in a line: Induction of GSK3-beta phosphorylation in human HepG2 cells at 10 uM by Western blot analysis in presence of 33 mM glucose. The class given is cell-based.
Series [9] deals with HepG2. The experiment in a line: Increase in glycogen synthesis in human HepG2 cells assessed as incorporation of [14C]glucose in to cellular glycogen pools at 1 uM after 60 mins in presence of 33 mM glucose. The class given is functional, cell-based.
The subject of series [10] is HepG2. Description: Induction of glucose uptake in human HepG2 cells in presence of 33 mM […] by scintillation counting. The class given is functional, cell-based.
Series [11] concerns the target Glycogen synthase kinase-3 beta (Homo sapiens) (UniProt P49841). Description: Induction of GSK3-beta phosphorylation in human HepG2 cells by Western blot analysis in presence of 33 mM glucose. The class given is cell-based.
Series [12] deals with HepG2. The experiment in a line: Induction of acetyl-coA carboxylase phosphorylation in human HepG2 cells by Western blot analysis in presence of 33 mM glucose. The class given is cell-based.
In series [13] the target is T1, AMP-activated protein kinase, AMPK (Homo sapiens). The experiment in a line: Induction of AMPK phosphorylation in human HepG2 cells by Western blot analysis in presence of 33 mM glucose. The class given is cell-based.

Active and inactive are the calls of the source. No cut-off for these calls is given here.

Data on 7 compounds can be found in ChEMBL document CHEMBL1155207, “Palbinone and triterpenes from Moutan Cortex (Paeonia suffruticosa, Paeoniaceae) stimulate glucose uptake and glycogen synthesis via activation of AMPK in insulin-resistant human HepG2 Cells” (Bioorg Med Chem Lett, 2009).

Glycogen synthase kinase-3 beta (Homo sapiens), sequence (P49841 whole entry, looked up): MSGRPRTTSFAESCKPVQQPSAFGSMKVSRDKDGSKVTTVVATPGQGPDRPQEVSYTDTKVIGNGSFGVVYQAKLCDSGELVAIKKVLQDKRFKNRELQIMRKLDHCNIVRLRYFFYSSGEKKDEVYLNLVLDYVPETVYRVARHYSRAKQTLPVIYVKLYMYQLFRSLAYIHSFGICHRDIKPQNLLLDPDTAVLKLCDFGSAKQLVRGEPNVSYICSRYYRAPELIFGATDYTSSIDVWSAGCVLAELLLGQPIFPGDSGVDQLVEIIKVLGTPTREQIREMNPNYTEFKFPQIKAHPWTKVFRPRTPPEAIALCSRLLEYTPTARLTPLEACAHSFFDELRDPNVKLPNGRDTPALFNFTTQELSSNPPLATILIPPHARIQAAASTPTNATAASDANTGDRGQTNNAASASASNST

In the case of `C=C1CC[C@]2(C(=O)O)CC[C@]3(C)C(=CC[C@@H]4[C@@]5(C)CC[C@H](O)[C@@](C)(CO)[C@@H]5CC[C@]43C)[C@@H]2C1`, the outcome (in [1]; in the series on HepG2 [5]; in the series with HepG2 [7]; in series [8]) was Active. The viability at 24 h, 100 µM in [2] worked out at 65%. Besides, in series [3], the viability at 24 h, 5 µM was 100%. In addition, the viability at 24 h, 10 µM in series [4] worked out at 96.7%. In addition, the viability at 24 h, 20 µM in [6] was 84.6%.
On to `CC[C@H](CC[C@@H](C)[C@H]1CC[C@H]2[C@@H]3CC=C4C[C@@H](O)CC[C@]4(C)[C@H]3CC[C@]12C)C(C)C` [BETA-SITOSTEROL], for which the outcome (in [1]; in the series on HepG2 [5]; in the series with HepG2 [7]; in series [8]) was Active. In [2], the viability at 24 h, 100 µM came out at 57.8%. In addition, the viability at 24 h, 5 µM in [3] was found to be 98.8%. Besides, the viability at 24 h, 10 µM in series [4] was 99.7%. Further, the viability at 24 h, 20 µM in series [6] was found to be 82.3%.
On to `C=C(C)[C@@H]1CC[C@]2(C(=O)O)CC[C@]3(C)[C@H](CC[C@@H]4[C@@]5(C)CC[C@H](O)C(C)(C)[C@@H]5CC[C@]43C)[C@@H]12` [BETULINIC ACID], for which the outcome (in series [1]; in the series with HepG2 [5]; in the series on HepG2 [7]; in series [8]) was Active. Further, the viability at 24 h, 100 µM in series [2] stood at 52.9%. Moreover, the viability at 24 h, 5 µM in series [3] is 99.6%. Also, in series [4], the viability at 24 h, 10 µM came to 91.3%. Besides, in series [6], the viability at 24 h, 20 µM turned out to be 81.2%.
Take `CC1(C)CC[C@]2(C(=O)O)CC[C@]3(C)C(=CC[C@@H]4[C@@]5(C)CC[C@H](O)C(C)(C)[C@@H]5CC[C@]43C)[C@@H]2C1` [OLEANOLIC_ACID]: the outcome (in [1]; in the series on HepG2 [5]; with HepG2 [7]; in series [8]) was Active. In addition, the viability at 24 h, 100 µM in series [2] turned out to be 54.1%. The viability at 24 h, 5 µM in series [3] amounted to 97.8%. Moreover, the viability at 24 h, 10 µM in [4] worked out at 99.9%. For the same compound, the viability at 24 h, 20 µM in [6] came to 82.4%.
As to `CC1(C)[C@@H](O)CC[C@]2(C)[C@H]3C=CC4=C(O)C(=O)C(=O)[C@@]4(C)[C@]3(C)CC[C@@H]12` [PALBINONE], the result (in series [1]; in the series with HepG2 [9]; in the series on HepG2 [5]; with HepG2 [7]; in [8]) was Active. Besides, the viability at 24 h, 100 µM in series [2] was determined as 41.6%. The viability at 24 h, 5 µM in series [3] is 98.7%. Moreover, the Activity result (in the series with HepG2 [10]; in series [11]; in the series on HepG2 [12]; in series [13]) was “Dose-dependent effect” each time. The viability at 24 h, 10 µM in series [4] was 99.8%. Besides, in [6], the viability at 24 h, 20 µM came to 81.5%.
Turning to `CC[C@H](CC[C@@H](C)[C@H]1CC[C@H]2[C@@H]3CC=C4C[C@@H](O[C@@H]5O[C@H](CO)[C@@H](O)[C@H](O)[C@H]5O)CC[C@]4(C)[C@H]3CC[C@]12C)C(C)C` [SITOGLUSIDE], the outcome (in [1]; with HepG2 [5]; in the series with HepG2 [7]; in [8]) was Active. Moreover, the viability at 24 h, 100 µM in series [2] is 66.3%. Further, the viability at 24 h, 5 µM in series [3] came to 99.9%. The viability at 24 h, 10 µM in series [4] stood at 92.8%. The viability at 24 h, 20 µM in series [6] stood at 82.7%.
Consider `C[C@H]1[C@H](C)CC[C@]2(C(=O)O)CC[C@]3(C)C(=CC[C@@H]4[C@@]5(C)CC[C@H](O)C(C)(C)[C@@H]5CC[C@]43C)[C@H]12` [URSOLIC ACID], for which the result (in series [1]; in the series with HepG2 [5]; in the series on HepG2 [7]; in [8]) was Active. In [2], the viability at 24 h, 100 µM was 55.8%. In series [3], the viability at 24 h, 5 µM came to 97.1%. Moreover, the viability at 24 h, 10 µM in series [4] was 99.2%. In addition, the viability at 24 h, 20 µM in [6] came to 82%.
